Data published in the supplement of paper PMC4723716.
Where a name gives a salt, the structure may show the parent alone.

Tested on: Plasmodium falciparum NF54 gametocytes
Conditions: 384, incubation time: 72 h
Experimental: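 Known antimalarials and MMV control compounds in dose response against each stage (I–V) […] The fitted EC50 is reported as IC50 in µM; '>' marks the top dose reached without a curve.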

[1] = gametocyte stage: Stage I Dose Response IC50 (µM), assay protocol: SaLSSA
[2] = gametocyte stage: Stage I Dose Response IC50 (µM), assay protocol: TSSA
[3] = gametocyte stage: Stage II Dose Response IC50 (µM), assay protocol: SaLSSA
[4] = gametocyte stage: Stage II Dose Response IC50 (µM), assay protocol: TSSA
[5] = gametocyte stage: Stage III Dose Response IC50 (µM), assay protocol: SaLSSA
[6] = gametocyte stage: Stage III Dose Response IC50 (µM), assay protocol: TSSA
[7] = gametocyte stage: Stage IV Dose Response IC50 (µM), assay protocol: SaLSSA
[8] = gametocyte stage: Stage IV Dose Response IC50 (µM), assay protocol: TSSA
[9] = gametocyte stage: Stage V Dose Response IC50 (µM), assay protocol: SaLSSA
[10] = gametocyte stage: Stage V Dose Response IC50 (µM), assay protocol: TSSA

Compound | IC50 of gametocyte viability [1] [µM] | IC50 of gametocyte viability [2] [µM] | IC50 of gametocyte viability [3] [µM] | IC50 of gametocyte viability [4] [µM] | IC50 of gametocyte viability [5] [µM] | IC50 of gametocyte viability [6] [µM] | IC50 of gametocyte viability [7] [µM] | IC50 of gametocyte viability [8] [µM] | IC50 of gametocyte viability [9] [µM] | IC50 of gametocyte viability [10] [µM]
CO[C@H]1O[C@@H]2O[C@@]3(C)CC[C@H]4[C@H](C)CC[C@@H]([C@H]1C)[C@@]24OO3 [Artemether] | 0.0159 | 0.0183 | 0.00459 | 0.0125 | 0.00617 | 0.0175 | 0.019 | 0.0184 | > 12.5 | > 12.5
C[C@H]1c2cccc(O)c2C(O)=C2C(=O)[C@]3(O)C(O)=C(C(N)=O)C(=O)[C@@H](N(C)C)[C@@H]3[C@@H](O)[C@@H]21 [Doxycyclin] | – | > 12.5 | – | > 12.5 | – | > 12.5 | – | > 12.5 | – | > 12.5
CC(C)(C)NCc1cc(Nc2ccnc3cc(Cl)ccc23)c2c(c1O)CCCC2 [Naphthoquine] | 0.0251 | – | 0.0145 | – | 0.296 | – | > 4.17 | – | > 4.17 | –
CN(C(=O)c1cn2c(-c3ccc(C#N)cc3)cnc2cn1)c1ccc(C(F)(F)F)cc1 [KAI407] | 0.593 | – | 0.636 | – | 0.415 | – | 0.329 | – | 0.156 | –
CNc1ccc(N(C)C(=O)c2cn3c(-c4ccc(Cl)cc4)cnc3cn2)cc1 [KDU691] | 0.532 | – | 0.565 | – | 0.354 | – | 0.237 | – | 0.15 | –
Clc1ccc2c(N3CCN(CCCN4CCN(c5ccnc6cc(Cl)ccc56)CC4)CC3)ccnc2c1 [Piperaquine phosphate] | – | 0.0223 | – | 0.0262 | – | > 4.17 | – | > 4.17 | – | > 4.17
C=C[C@H]1CN2CC[C@H]1C[C@@H]2[C@@H](O)c1ccnc2ccc(OC)cc12 [Quinidine] | 0.138 | – | 0.208 | – | > 9.17 | – | > 12.5 | – | > 11.8 | –
C[C@H]1[C@@H](O)O[C@@H]2O[C@@]3(C)CC[C@H]4[C@H](C)CC[C@@H]1[C@@]24OO3 [Artenimol (Dihydro artemisinin)] | 0.00579 | – | 0.0027 | – | 0.00674 | – | 0.0207 | – | > 12.5 | –
COc1cc(Cc2cnc(N)nc2N)cc(OC)c1OC [Trimethoprim] | > 12.5 | – | > 12.5 | – | > 12.5 | – | > 12.5 | – | > 12.5 | –
O[C@@H](c1cc(C(F)(F)F)nc2c(C(F)(F)F)cccc12)[C@H]1CCCCN1 [Mefloquine (+ RS)] | 0.0379 | – | 0.039 | – | 0.078 | – | 0.579 | – | 0.158 | –
OC(c1cc(C(F)(F)F)nc2c(C(F)(F)F)cccc12)C1CCCCN1 (centres undefined) [Mefloquine (+ RS)] | – | 0.0512 | – | 0.0471 | – | 0.0585 | – | 1.64 | – | 6.34
CCN(CCO)CCCC(C)Nc1ccnc2cc(Cl)ccc12 (centres undefined) [Hydroxychloroquine] | 0.107 | 0.104 | 0.131 | 0.139 | > 4.49 | > 6.25 | > 6.25 | > 6.25 | > 6.25 | > 6.25
C[C@H]1c2cccc(O)c2C(=O)C2=C(O)[C@]3(O)C(=O)C(C(N)=O)=C(O)[C@@H](N(C)C)[C@@H]3[C@@H](O)[C@@H]21 [Doxycyclin] | > 12.5 | – | > 12.5 | – | > 12.5 | – | > 12.5 | – | > 12.5 | –
COc1cc(NC(C)CCCN)c2ncccc2c1 (centres undefined) [Primaquine] | 2.47 | 3.35 | 2.25 | 6.41 | 5.4 | 7.96 | 5.15 | 9.44 | 6.5 | > 11.3
COc1ccc2nc3cc(Cl)ccc3c(Nc3cc(CN4CCCC4)c(O)c(CN4CCCC4)c3)c2n1 [Pyronaridine phosphate] | – | 0.0101 | – | 0.0125 | – | 0.315 | – | 3.82 | – | 3.16
C[C@@H]1CC[C@H]2[C@@H](C)C(=O)O[C@@H]3O[C@@]4(C)CC[C@@H]1[C@]32OO4 [Artemisinin] | – | 0.027 | – | 0.0188 | – | 0.0218 | – | 0.0322 | – | > 12.5
C(CN1CCOCC1)Oc2ccc(cc2)[C@@H]3CC[C@@]4(CC3)OO[C@@]5(O4)[C@@H]6CC7C[C@@H](CC5C7)C6 [OZ 439 mesylate] | 0.0107 | – | 0.00536 | – | 0.00342 | – | 0.0019 | – | > 12.5 | –
OC(c1cc(C(F)(F)F)nc2c(C(F)(F)F)cccc12)C1CCCCN1 (racemic) [Mefloquine (Racemic)] | – | 0.0569 | – | 0.117 | – | 0.127 | – | 2.08 | – | 5.77
CCc1nc(N)nc(N)c1OCCCOc1ccccc1CCC(=O)O [P218.HCl] | > 12.5 | – | > 12.5 | – | > 12.5 | – | > 12.5 | – | > 12.5 | –
O=CN(O)CCCP(=O)([O-])O [fosmidomycin mono sodium] | > 12.5 | – | > 12.5 | – | > 12.5 | – | > 12.5 | – | > 12.5 | –
C=C(NC(=O)C(=C)NC(=O)c1csc(C2=N[C@@H]3c4csc(n4)[C@H]4NC(=O)c5csc(n5)[C@H]([C@](C)(O)[C@@H](C)O)NC(=O)[C@H]5CSC(=N5)/C(=C/C)NC(=O)[C@H]([C@@H](C)O)NC(=O)c5csc(n5)[C@]3(CC2)NC(=O)[C@H](C)NC(=O)C(=C)NC(=O)[C@H](C)NC(=O)[C@H]([C@@H](C)CC)N[C@@H]2C=Cc3c([C@H](C)O)cc(nc3[C@H]2O)C(=O)O[C@@H]4C)n1)C(N)=O [Thiostrepton] | – | 4.04 | – | 4.81 | – | 3.75 | – | 3.41 | – | 3.42
c1cc([C@H]2CC[C@]3(CC2)OO[C@]2(O3)C3CC4CC(C3)CC2C4)ccc1OCCN1CCOCC1 [OZ 439 mesylate] | – | 0.0102 | – | 0.01 | – | 0.00852 | – | 0.00553 | – | > 12.5
CCC[C@@H]1C[C@@H](C(=O)N[C@@H]([C@H]2O[C@H](SC)[C@H](O)[C@@H](O)[C@H]2O)[C@H](C)Cl)N(C)C1 [clindamycin] | > 12.5 | – | > 12.5 | – | > 12.5 | – | > 12.5 | – | > 12.5 | –
CCN(CC)CCCC(C)Nc1cc(OC)cc2cccnc12 (centres undefined) [Pamaquine (diethlyprimaquine)] | 1.68 | 1.67 | 1.4 | 2.87 | 2.41 | 5.15 | 2.82 | 5.28 | 2.53 | 9.38
C[C@H]1[C@H](OC(=O)CCC(=O)O)O[C@@H]2O[C@@]3(C)CC[C@H]4[C@H](C)CC[C@@H]1[C@@]24OO3 [Artesunate] | 0.00773 | – | 0.00351 | – | 0.0126 | – | 0.0491 | – | > 10.6 | –
CCN(CC)CCCNc1ccnc2cc(Cl)ccc12 [AQ-13] | 0.0426 | – | 0.0335 | – | 0.484 | – | 6.47 | – | 6.05 | –
CC[C@H](C)[C@H](NC(=O)[C@H]([C@@H](C)CC)N(C)C(C)=O)C(=O)N[C@H](C(=O)N[C@@H](CC(C)C)C(=O)[C@@]1(C)CO1)[C@@H](C)O [Epoxomycin] | – | – | – | – | – | – | – | – | 0.0128 | –
CCCCN(CCCC)CCC(O)c1cc2c(Cl)cc(Cl)cc2c2cc(C(F)(F)F)ccc12 (centres undefined) [Halofantrine] | – | 0.00577 | – | – | – | – | – | > 12.5 | – | > 12.5
Nc1ccc(S(=O)(=O)c2ccc(N)cc2)cc1 [Dapsone] | > 12.5 | – | > 12.5 | – | > 12.5 | – | > 12.5 | – | > 12.5 | –
